This note sets out measurements from patent publication US20140128605A1, “CRYSTALS OF GLYCINE DERIVATIVE AND PHARMACEUTICAL USE THEREOF” (Toray Industries, Inc., priority 2011, published 2014).

Holding throughout (type): physicochemical
Data set [1] in a line: Evaluation of solid-state stability (60° C., four weeks, air-tightly). Conditions: for Purity [%] Initial value / Purity [%] After 4 weeks: HPLC; for Purity [%] Initial value: before storage; for Purity [%] After 4 weeks / Decomposition product increased by not less than 0.15% after 4 weeks / Crystal form after 4 weeks: stored air-tightly at 60° C. for four weeks; for Crystal form after 4 weeks: powder X-ray diffraction and TG-DTA. As for the experimental part:
The amorphous form, and the crystals of Form A, Form B, Form C, Form D and Form E (hydrate) of the subject compound were stored air-tightly at 60° C. for four weeks, and the purities thereof before and after the storage were measured by high performance liquid chromatography (hereinafter referred to as “HPLC”) under the following conditions. The powder X-ray diffraction measurement and TG-DTA were carried out to evaluate whether the crystal forms were changed or not due to the storage. Aqueous sodium dihydrogen phosphate solution in a concentration of 20 mmol/L (hereinafter referred to as “aqueous SDP solution”) used to prepare a mobile phase of HPLC was prepared by adding distilled water (3 L) to weighed sodium dihydrogen phosphate dihydrate (9.36 g) and stirring the resulting solution to dissolve the dihydrate. An analytical sample of HPLC was prepared by weighing and adding each crystal (1.75 mg) of the subject compound to a 10-mL measuring flask respectively; adding acetonitrile (2 mL) thereto to dissolve the crystal; and then adding aqueous SDP solution thereto to a total volume of 10 mL.
• Detection Wavelength: 210 nm • Column: YMC-Pack Pro C18 AS-303 • Mobile Phase A: aqueous SDP solution/acetonitrile=80:20 (v/v) • Mobile Phase B: acetonitrile/aqueous SDP solution=70:30 (v/v) • Composition of Mobile Phase B: 0 to 60 minutes: 0→100% • 60 to 65 minutes: 100%, • 65 to 66 minutes: 100→0%, • 66 to 75 minutes: 0% • Flow rate: 1.0 mL/min • Column Temperature: 40° C. • Amount of Injected Sample: 20 μL

A short description of data set [2]: Evaluation of moisture absorption (equilibrium moisture regain). Conditions: for Weight increase: relative humidity increased from 5% to 95%, 25° C. As for the experimental part: • Sample Amount: 5 to 12 mg • Measuring Temperature: 25° C. • Equilibrium Weight/time: 0.01 wt %/5 minutes • Maximum Equilibration Time: 180 minutes • Measurement Range: 5% relative humidity-95% relative humidity-5% relative humidity • Measurement Interval: 5% relative humidity
To evaluate whether the crystal form changes or not, the powder X-ray diffraction measurement was carried out for each crystal of Form A, Form B, Form C, Form D and Form E (hydrate) obtained after the evaluation test of moisture absorption. Only for the Form A crystal, the measurement range (2θ) of the powder X-ray diffraction measurement was changed to 2 to 35°, and the measurement was carried out at 25° C., 90% relative humidity. A humidity generator (HUM-1A; manufactured by Rigaku) was used to control humidity.

A short description of data set [3]: Physical stability of crystal form in solvents. Particulars: solvents (e.g., toluene, methanol, 2-propanol).
Data set [4] in a line: Crystal form after milling (powder X-ray diffraction, TG-DTA). Particulars: pin milled and jet milled products.
Data set [5] is described as follows: Storage stability test (accelerated testing) of Form C crystal. Conditions: 40° C., 75% relative humidity; for Purity [%] Initial value: HPLC, before storage, 6 months column. On the procedure: The Form C crystals of the subject compound were stored under acceleration conditions (40° C., 75% relative humidity) air-tightly or under open conditions for six months, and the purities of the crystals before and after the storage were measured by HPLC under conditions below. The powder X-ray diffraction measurement and TG-DTA were carried out to evaluate whether the crystal form was changed or not due to storage.
Phosphate buffer in a concentration of 20 mmol/L (pH 3.9) (hereinafter referred to as “Buffer X”) used to prepare a mobile phase of HPLC was prepared by adding 20 mmol/L of aqueous phosphoric acid solution to 20 mmol/L of aqueous potassium dihydrogen phosphate solution. 20 mmol/L of the aqueous potassium dihydrogen phosphate solution was prepared by adding the weighed potassium dihydrogen phosphate (8.2 g) to distilled water (3 L), and stirring the resulting solution to dissolve the phosphate, and 20 mmol/L of the aqueous phosphoric acid solution was prepared by adding phosphoric acid (1.4 mL) to distilled water (1 L), and mixing the resulting solution under stirring.
Phosphate buffer in a concentration of 20 mmol/L (pH 7.0) (hereinafter referred to as “Buffer Y”) used to prepare an analytical sample of HPLC was prepared by adding 20 mmol/L of aqueous phosphoric acid solution to 20 mmol/L of aqueous dipotassium hydrogen phosphate solution. 20 mmol/L of aqueous dipotassium hydrogen phosphate solution was prepared by adding the weighed dipotassium hydrogen phosphate (3.5 g) to distilled water (1 L), and stirring the resulting solution.
Further, the analytical sample of HPLC was prepared by weighing and adding the Form C crystals of the subject compound (10 mg) to a 50-mL measuring flask, and adding a mixture of Buffer Y and acetonitrile at a ratio of 80:20 to a total amount of 50 mL.
• Detection Wavelength: 210 nm • Column: YMC-Pack Pro C18 • AS12S05-2546WT • Mobile Phase A: buffer X/acetonitrile=80:20 (v/v) • Mobile Phase B: acetonitrile/buffer X=70:30 (v/v) • Composition of Mobile Phase B: 0 to 80 minutes: 0→100% • 80 to 85 minutes: 100% • 85 to 86 minutes: 100→0% • 86 to 95 minutes: 0% • Flow Rate: 1.0 mL/min • Column Temperature: 40° C. • Amount of Injected Sample: 20 μL

With `CN(c1ccc(/C=C/C[C@H](NC(=O)c2c(Cl)cccc2Cl)C(=O)O)cc1)c1ncccn1` [Amorphous, (S,E)-2-(2,6-dichlorobenzamido)-5-[4-(methyl-pyrimidin-2-ylamino)phenyl]pent-4-enoic acid], in data set [1], the “Purity [%] Initial value” was found to be 95.8%, the “Purity [%] After 4 weeks” value is 92.0%, the “Decomposition product increased by not less than 0.15% after 4 weeks” value is listed as 8 different and the “Crystal form after 4 weeks” value was “Amorphous”.

With `CN(c1ccc(/C=C/C[C@H](NC(=O)c2c(Cl)cccc2Cl)C(=O)O)cc1)c1ncccn1` [Form A, (S,E)-2-(2,6-dichlorobenzamido)-5-[4-(methyl-pyrimidin-2-ylamino)phenyl]pent-4-enoic acid], in data set [1], the “Purity [%] Initial value” amounted to 97.3%, the “Purity [%] After 4 weeks” value is 97.5%, the “Decomposition product increased by not less than 0.15% after 4 weeks” value is “nothing” and the “Crystal form after 4 weeks” value was “Form B”. In data set [2] (powder X-ray diffraction after the moisture absorption test), the “Change in crystal form” value is “changed^2)”. The same compound showed a Weight increase in data set [2] of 3.4%.

Consider `CN(c1ccc(/C=C/C[C@H](NC(=O)c2c(Cl)cccc2Cl)C(=O)O)cc1)c1ncccn1` [Form B, (S,E)-2-(2,6-dichlorobenzamido)-5-[4-(methyl-pyrimidin-2-ylamino)phenyl]pent-4-enoic acid], for which, in data set [1], the “Purity [%] Initial value” was determined as 99.8%, the “Purity [%] After 4 weeks” value was 99.8%, the “Decomposition product increased by not less than 0.15% after 4 weeks” value is on record as “nothing” and the “Crystal form after 4 weeks” value is “Form B”. The compound further came in with a Weight increase in data set [2] of 1.9%.

As for `CN(c1ccc(/C=C/C[C@H](NC(=O)c2c(Cl)cccc2Cl)C(=O)O)cc1)c1ncccn1` [Form C, (S,E)-2-(2,6-dichlorobenzamido)-5-[4-(methyl-pyrimidin-2-ylamino)phenyl]pent-4-enoic acid], in data set [3], the “Transfer of crystal form in solvents” value is reported as “not transferred to the another form”. For the same compound, the “Change in the crystal form due to milling” value in data set [4] is listed as “no change in the crystal form”. Moreover, in data set [5] (air-tightly), the “Crystal form after 6 months” value is reported as “Form C”, the “Decomposition product increased by not less than 0.15% after 6 months” value is listed as “Nothing”, the “Purity [%] After 6 months” value was 99.5% and the “Purity [%] Initial value” is listed as 99.5%. In data set [5] (open condition), the “Crystal form after 6 months” value is listed as “Form C”, the “Decomposition product increased by not less than 0.15% after 6 months” value was “Nothing”, the “Purity [%] After 6 months” value was determined as 99.4% and the “Purity [%] Initial value” is given as 99.5%. Also, in data set [1], the “Purity [%] Initial value” stood at 98.9%, the “Purity [%] After 4 weeks” value is on record as 98.9%, the “Decomposition product increased by not less than 0.15% after 4 weeks” value was “nothing” and the “Crystal form after 4 weeks” value is on record as “Form C”.

In the case of `CN(c1ccc(/C=C/C[C@H](NC(=O)c2c(Cl)cccc2Cl)C(=O)O)cc1)c1ncccn1` [Form D, (S,E)-2-(2,6-dichlorobenzamido)-5-[4-(methyl-pyrimidin-2-ylamino)phenyl]pent-4-enoic acid], in data set [1], the “Purity [%] Initial value” is 98.0%, the “Purity [%] After 4 weeks” value is listed as 98.0%, the “Decomposition product increased by not less than 0.15% after 4 weeks” value is on record as “nothing” and the “Crystal form after 4 weeks” value is recorded as “Mixed crystals^2)”. For the same compound, the Weight increase in data set [2] was 1.0%.

Turning to `CN(c1ccc(/C=C/C[C@H](NC(=O)c2c(Cl)cccc2Cl)C(=O)O)cc1)c1ncccn1` [Form E, (S,E)-2-(2,6-dichlorobenzamido)-5-[4-(methyl-pyrimidin-2-ylamino)phenyl]pent-4-enoic acid], in data set [1], the “Purity [%] Initial value” is given as 96.6%, the “Purity [%] After 4 weeks” value amounted to 96.9%, the “Decomposition product increased by not less than 0.15% after 4 weeks” value is recorded as “nothing” and the “Crystal form after 4 weeks” value is on record as “Form E”. In addition, in data set [2], the Weight increase is recorded as 0.4%.
